# Results: the supplement of paper PMC10307832
# Compound: C1CSC2=C(C(=O)N1)SC3=C2C=C(C=C3)O [kb NB 142-70] + O=C(CCCCCCC(=O)Nc1ccccc1)NO [Vorinostat] (partner 1 µM)
# Experiment: relative viability (nuclei count vs DMSO), 5 days (fraction); higher = more cells survive
# Settings: first compound 0.1 µM
# Outline: (§1)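 Dosing by pin tool came one day after lung cancer cell lines were seeded in 1536-well plates, using either one drug or a fixed anchor-drug dose plus five library-drug doses (not always all listed) in √10 steps. After 5 days, nuclei were counted on 4× images. Relative viability is treated-well nuclei count divided by vehicle-well nuclei count, and values are medians of duplicate plates.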
row,Cell Line,relative viability
1,HCC-15,0.812

# Same assay, conditions: first compound 1 µM
row,Cell Line,relative viability
1,ChaGo-K-1,0.813
2,NCI-H2170,0.86
3,NCI-H2405,1.03
4,HOP-62,0.713
5,LU99A,0.443
6,BEN,0.585
7,HARA,0.438
8,SW 900,0.593
9,NCI-H322M,1.06
10,LCLC-97TM1,0.773
11,A-427,0.969
12,NCI-H441,0.844
13,NCI-H1734,0.724
14,NCI-H460,0.755
15,NCI-H2347,0.641
16,NCI-H1395,0.748
17,201T,1.02
18,NCI-H1915,0.565
19,HCC-827,0.864
20,LXF-289,0.711
21,NCI-H23,0.583
22,NCI-H647,0.597
23,CAL-12T,0.663
24,NCI-H1651,0.579
25,EPLC-272H,0.273
26,NCI-H1355,0.643
27,NCI-H3122,1.08
28,NCI-H1437,0.895
29,NCI-H1755,0.801
30,HCC-15,0.816

# Same assay, conditions: first compound 3.162 µM
row,Cell Line,relative viability
1,ChaGo-K-1,0.7
2,NCI-H2170,0.744
3,NCI-H2405,0.587
4,HOP-62,0.579
5,LU99A,0.33
6,BEN,0.573
7,HARA,0.563
8,SW 900,0.388
9,NCI-H322M,0.926
10,LCLC-97TM1,0.515
11,A-427,0.932
12,NCI-H441,0.644
13,NCI-H1734,0.538
14,NCI-H460,0.436
15,NCI-H2347,0.599
16,NCI-H1395,0.701
17,201T,1.06
18,NCI-H1915,0.45
19,HCC-827,0.88
20,LXF-289,0.51
21,NCI-H23,0.298
22,NCI-H647,0.492
23,CAL-12T,0.564
24,NCI-H1651,0.566
25,EPLC-272H,0.155
26,NCI-H1355,0.657
27,NCI-H3122,0.887
28,NCI-H1437,0.77
29,NCI-H1755,0.674
30,HCC-15,0.801

# Compound: NCC(=O)Nc1ccc(-n2nc(C(F)(F)F)cc2-c2ccc3c(ccc4ccccc43)c2)cc1 + Cc1cc(Nc2cc(N3CCN(C)CC3)nc(Sc3ccc(NC(=O)C4CC4)cc3)n2)n[nH]1 [Tozasertib] (partner 0.1 µM)
# Experiment: as above
# Settings: first compound 0.02 µM
# Outline: as §1
row,Cell Line,relative viability
1,ChaGo-K-1,0.21
2,NCI-H2170,0.743
3,NCI-H2405,0.745
4,HOP-62,0.364
5,LU99A,0.241
6,BEN,0.422
7,HARA,0.0731
8,NCI-H322M,0.54
9,LCLC-97TM1,0.228
10,NCI-H441,0.642
11,NCI-H1734,0.28
12,NCI-H460,0.397
13,NCI-H2347,0.586
14,NCI-H1395,0.724
15,201T,0.943
16,NCI-H1915,0.378
17,HCC-827,0.38
18,LXF-289,0.233
19,NCI-H23,0.332
20,NCI-H647,0.286
21,CAL-12T,0.304
22,NCI-H1651,0.703
23,EPLC-272H,0.299
24,NCI-H1355,0.558
25,NCI-H3122,0.412
26,NCI-H1437,0.407
27,NCI-H1755,0.626
28,HCC-15,0.379

# Same assay, conditions: first compound 0.06325 µM
row,Cell Line,relative viability
1,ChaGo-K-1,0.223
2,NCI-H2170,0.726
3,NCI-H2405,0.853
4,HOP-62,0.409
5,LU99A,0.273
6,BEN,0.499
7,HARA,0.108
8,SW 900,0.509
9,NCI-H322M,0.461
10,LCLC-97TM1,0.26
11,A-427,0.213
12,NCI-H441,0.522
13,NCI-H1734,0.271
14,NCI-H460,0.591
15,NCI-H2347,0.71
16,NCI-H1395,0.75
17,201T,0.958
18,NCI-H1915,0.465
19,HCC-827,0.437
20,LXF-289,0.196
21,NCI-H23,0.453
22,NCI-H647,0.314
23,CAL-12T,0.368
24,NCI-H1651,0.694
25,EPLC-272H,0.225
26,NCI-H1355,0.657
27,NCI-H3122,0.431
28,NCI-H1437,0.383
29,NCI-H1755,0.596
30,HCC-15,0.416

# Same assay, conditions: first compound 0.2 µM
row,Cell Line,relative viability
1,ChaGo-K-1,0.241
2,NCI-H2170,0.779
3,NCI-H2405,0.779
4,HOP-62,0.37
5,LU99A,0.259
6,BEN,0.461
7,HARA,0.12
8,SW 900,0.594
9,NCI-H322M,0.517
10,LCLC-97TM1,0.234
11,A-427,0.191
12,NCI-H441,0.747
13,NCI-H1734,0.276
14,NCI-H460,0.485
15,NCI-H2347,0.482
16,NCI-H1395,0.778
17,201T,1.04
18,NCI-H1915,0.426
19,HCC-827,0.389
20,LXF-289,0.202
21,NCI-H23,0.314
22,NCI-H647,0.425
23,CAL-12T,0.344
24,NCI-H1651,0.906
25,EPLC-272H,0.365
26,NCI-H1355,0.574
27,NCI-H3122,0.391
28,NCI-H1437,0.413
29,NCI-H1755,0.6
30,HCC-15,0.39
